According to article PMC7598997, “Synthesis and evaluation of anticancer activities of 2- or 4-substituted 3-(N-benzyltriazolylmethyl)-13α-oestrone derivatives” (Journal of Enzyme Inhibition and Medicinal Chemistry, 2020):
Read-outs that look alike come from different tables or passages of the source.

Assays:
A2780 cells = assay: MTT antiproliferative assay, A2780; assay type: cell-based, human; details: for IC50: read-out: calculated IC50; for inhibition at 10 µM / inhibition at 30 µM: read-out: Inhibition (%) ± SEM
Method: (§1) The antiproliferative properties of the newly synthesised triazoles (11a,b–15a,b) were determined on a panel of human adherent cancer cell lines of gynaecological origin. MCF-7 and MDA-MB-231 were isolated from breast cancers differing in biochemical background, while A2780 cells were isolated from ovarian cancer. The cancer selectivity of compound 12a was tested on the non-cancerous mouse embryo fibroblast cell line NIH/3T3. All cell lines were purchased from European Collection of Cell Cultures (ECCAC, Salisbury, UK). Cells were cultivated in minimal essential medium supplemented with 10% foetal bovine serum, 1% non-essential amino acids and an antibiotic–antimycotic mixture. All media and supplements were obtained from Lonza Group Ltd., Basel, Switzerland. Near-confluent cancer cells were seeded onto a 96-well microplate (5000 cells/well) and, after overnight standing, 200 µL new medium, containing the tested compounds at 10 and 30 µM, was added. After incubation for 72 h at 37 °C in humidified air containing 5% CO2, the living cells were assayed by the addition of 20 µL of 5 mg/ml 3-(4,5-dimethylthiazol-2-yl)-2,5-diphenyltetrazolium bromide (MTT) solution. MTT was converted by intact mitochondrial reductase and precipitated as purple crystals during a 4-h contact period. The medium was next removed and the precipitated formazan crystals were dissolved in 100 µL of DMSO during a 60-min period of shaking at 37 ^оC.
(§2) Finally, the reduced MTT was assayed at 545 nm, using a microplate reader utilising wells with untreated cells serving as control. […] All in vitro experiments were carried out on two microplates with at least five parallel wells. Stock solutions of the tested substances (10 mM) were prepared in DMSO. […] Cisplatin (Ebewe Pharma GmbH, Unterach, Austria) was used as positive control.

MDA-MB-231 cells = assay: MTT antiproliferative assay, MDA-MB-231; assay type: cell-based, human; details: for IC50: read-out: calculated IC50; for inhibition at 10 µM / inhibition at 30 µM: read-out: Inhibition (%) ± SEM
Method: as §1, §2

MCF-7 cells = assay: MTT antiproliferative assay, MCF-7; assay type: cell-based, human; details: for IC50: read-out: calculated IC50; for inhibition at 10 µM / inhibition at 30 µM: read-out: Inhibition (%) ± SEM
Method: as §1, §2

tubulin = assay: cell-free in vitro tubulin polymerisation assay; assay type: biochemical; details: 10 µM paclitaxel, positive control, vs untreated control
Method: The effect of brominated triazole (12a) on tubulin polymerisation was tested with the HTS-Tubulin Polymerisation Assay Biochem Kit (Bio-Kasztel Ltd., Budapest, Hungary) according to the manufacturer’s recommendations. Briefly, 10 µl of a 0.125 or 0.25 mM solution of the test compound (12a) was placed on a prewarmed (37 °C), UV-transparent microplate. About 10 µl 10 µM paclitaxel and 10 µl General Tubulin Buffer were used as positive and negative control, respectively. 100 µl 3.0 mg/ml tubulin in 80 mM PIPES pH 6.9, 2 mM MgCl2, 0.5 mM EGTA, 1 mM GTP was added to each sample, and the microplate was immediately placed into a prewarmed (37 °C) UV-spectrophotometer (SpectoStarNano, BMG Labtech, Ortenberg, Germany) to start the recording reaction. A 60-min kinetic measurement protocol was applied to determine the absorbance of the reaction solution per minute at 340 nm. For the evaluation of the experimental data, the maximum reaction rate (Vmax: Δabsorbance/min) was calculated. Moving averages of absorbances determined at three consecutive timepoints were calculated and the highest difference between two succeeding moving averages was taken as the Vmax of the tested compound in the tubulin polymerisation reaction. Each sample was prepared in two parallels and the measurements were repeated twice. For statistical evaluation, Vmax data were analysed by the one-way ANOVA test with the Newmann–Keuls post-test by using Prism 4.01 software (GraphPad Software, San Diego, CA).

[1] = Homo sapiens, A2780, 10 µM, 72 h, MTT
[2] = Homo sapiens, A2780, 30 µM, 72 h, MTT
[3] = Homo sapiens, MDA-MB-231, 10 µM, 72 h, MTT
[4] = Homo sapiens, MDA-MB-231, 30 µM, 72 h, MTT
[5] = Homo sapiens, MCF7, MCF-7, 10 µM, 72 h, MTT
[6] = Homo sapiens, MCF7, MCF-7, 30 µM, 72 h, MTT

Compound	inhibition at 10 µM (A2780 cells; Homo sapiens, A2780, 72 h) [%]	inhibition at 30 µM (A2780 cells; Homo sapiens, A2780, 72 h) [%]	IC50 (A2780 cells; Homo sapiens, A2780, 72 h) [µM]	melting point [°C]	inhibition at 10 µM (MDA-MB-231 cells; Homo sapiens, MDA-MB-231, 72 h) [%]	inhibition at 30 µM (MDA-MB-231 cells; Homo sapiens, MDA-MB-231, 72 h) [%]	inhibition at 10 µM (MCF-7 cells; Homo sapiens, MCF7, 72 h) [%]	inhibition at 30 µM (MCF-7 cells; Homo sapiens, MCF7, 72 h) [%]	IC50 (MDA-MB-231 cells; Homo sapiens, MDA-MB-231, 72 h) [µM]	IC50 (MCF-7 cells; Homo sapiens, MCF7, 72 h) [µM]	further results
N.N.[Cl][Pt][Cl] [Cisplatin, reference compound]											Inhibition (%) ± SEM (A2780 cells; A2780, 10 µM, 72 h, MTT): 83.57 ± 1.21%; Inhibition (%) ± SEM (A2780 cells; A2780, 30 µM, 72 h, MTT): 95.02 ± 0.28%; IC50 (A2780 cells; A2780, 72 h, MTT): 1.3 µM; Inhibition (%) ± SEM (MDA-MB-231 cells; MDA-MB-231, 10 µM, 72 h, MTT): 67.51 ± 1.01%; Inhibition (%) ± SEM (MDA-MB-231 cells; MDA-MB-231, 30 µM, 72 h, MTT): 87.75 ± 1.10%; IC50 (MDA-MB-231 cells; MDA-MB-231, 72 h, MTT): 3.7 µM; Inhibition (%) ± SEM (MCF-7 cells; MCF-7, 10 µM, 72 h, MTT): 53.03 ± 2.29%; Inhibition (%) ± SEM (MCF-7 cells; MCF-7, 30 µM, 72 h, MTT): 86.90 ± 1.24%; IC50 (MCF-7 cells; MCF-7, 72 h, MTT): 5.78 µM
C[C@@]12CC[C@@H]3c4cc(Br)c(OCc5cn(Cc6ccccc6)nn5)cc4CC[C@H]3[C@@H]1CCC2=O [Compound 11a, 3-[{1-benzyl-1H-1,2,3-triazol-4-yl}methoxy]-2-bromo-13α-estra-1,3,5(10)-trien-17-one]											inhibition at 10 µM (A2780 cells; [1]): 44.87 ± 0.09%; inhibition at 30 µM (A2780 cells; [2]): 52 ± 0.8%; IC50 (A2780 cells; Homo sapiens, A2780, 72 h, MTT): 21.5 µM; inhibition at 10 µM (MDA-MB-231 cells; [3]): 47.5 ± 1.21%; inhibition at 30 µM (MDA-MB-231 cells; [4]): 38.2 ± 2.78%; inhibition at 10 µM (MCF-7 cells; [5]): 29.1 ± 1.42%; inhibition at 30 µM (MCF-7 cells; [6]): 36.5 ± 1.22%
CC(C)(C)c1ccc(Cn2cc(COc3cc4c(cc3Br)[C@H]3CC[C@@]5(C)C(=O)CC[C@H]5[C@@H]3CC4)nn2)cc1 [Compound 11b, 2-bromo-3-[{1–(4-tert-butylbenzyl)-1H-1,2,3-triazol-4-yl}methoxy]-13α-estra-1,3,5(10)-trien-17-one]											inhibition at 10 µM (A2780 cells; [1]): 30.2 ± 2.35%; inhibition at 30 µM (A2780 cells; [2]): 33.9 ± 2.7%; inhibition at 10 µM (MDA-MB-231 cells; [3]): 24.4 ± 2.2%; inhibition at 30 µM (MDA-MB-231 cells; [4]): 23.9 ± 1.07%; inhibition at 10 µM (MCF-7 cells; [5]): < 20%; inhibition at 30 µM (MCF-7 cells; [6]): < 20%
CC(C)(C)c1ccc(Cn2cc(COc3ccc4c(c3Br)CC[C@@H]3[C@@H]4CC[C@@]4(C)C(=O)CC[C@@H]34)nn2)cc1 [Compound 12b, 4-bromo-3-[{1–(4-tert-butylbenzyl)-1H-1,2,3-triazol-4-yl}methoxy]-13α-estra-1,3,5(10)-trien-17-one]											inhibition at 10 µM (A2780 cells; [1]): 46.9 ± 1.75%; inhibition at 30 µM (A2780 cells; [2]): 54.7 ± 0.7%; IC50 (A2780 cells; Homo sapiens, A2780, 72 h, MTT): 18.3 µM; inhibition at 10 µM (MDA-MB-231 cells; [3]): < 20%; inhibition at 30 µM (MDA-MB-231 cells; [4]): < 20%; inhibition at 10 µM (MCF-7 cells; [5]): 23.5 ± 1.03%; inhibition at 30 µM (MCF-7 cells; [6]): 29.2 ± 2.94%
CCOP(=O)(OCC)c1cc2c(cc1OCc1cn(Cc3ccccc3)nn1)CC[C@@H]1[C@@H]2CC[C@@]2(C)C(=O)CC[C@@H]12 [Compound 13a, (3-[{1-benzyl-1H-1,2,3-triazol-4-yl}methoxy]-13α-estra-1,3,5(10)-trien-17-on-2-yl)-diethylphosphonate]	29.5 ± 1.86	90.85 ± 0.4	13.5	75 to 80	< 20	36 ± 3.17	< 20	43.5 ± 2.63			
CCOP(=O)(OCC)c1cc2c(cc1OCc1cn(Cc3ccc(C(C)(C)C)cc3)nn1)CC[C@@H]1[C@@H]2CC[C@@]2(C)C(=O)CC[C@@H]12 [Compound 13b, (3-[{1–(4-tert-butylbenzyl)-1H-1,2,3-triazol-4-yl}methoxy]-13α-estra-1,3,5(10)-trien-17-on-2-yl)-diethylphosphonate]	95.61 ± 0.59	99.73 ± 0.21	2.95		57 ± 2.58	98.93 ± 0.2	74 ± 1.88	95.52 ± 0.23	9.51	6.59	
C[C@@]12CC[C@@H]3c4cc(P(=O)(c5ccccc5)c5ccccc5)c(OCc5cn(Cc6ccccc6)nn5)cc4CC[C@H]3[C@@H]1CCC2=O [Compound 14a, (3-[{1-benzyl-1H-1,2,3-triazol-4-yl}methoxy]-13α-estra-1,3,5(10)-trien-17-on-2-yl)diphenylphosphine oxide]	96 ± 1.28	98.06 ± 0.89	4.87	117 to 120	82 ± 2.49	98.52 ± 0.1	66.9 ± 1.46	92.5 ± 1.08	7.13	8.38	
CC(C)(C)c1ccc(Cn2cc(COc3cc4c(cc3P(=O)(c3ccccc3)c3ccccc3)[C@H]3CC[C@@]5(C)C(=O)CC[C@H]5[C@@H]3CC4)nn2)cc1 [Compound 14b, (3-[{1–(4-tert-butylbenzyl)-1H-1,2,3-triazol-4-yl}methoxy]-13α-estra-1,3,5(10)-trien-17-on-2-yl)diphenylphosphine oxide]	85.52 ± 0.64	95.82 ± 0.12	5.07	205 to 208	46.6 ± 1.21	71.3 ± 1.23	77.87 ± 0.66	90.69 ± 0.18	13.6	7.16	
CCOP(=O)(OCC)c1c(OCc2cn(Cc3ccccc3)nn2)ccc2c1CC[C@@H]1[C@@H]2CC[C@@]2(C)C(=O)CC[C@@H]12 [Compound 15a, (3-[{1-benzyl-1H-1,2,3-triazol-4-yl}methoxy]-13α-estra-1,3,5(10)-trien-17-on-4-yl)-diethylphosphonate]	79.9 ± 1.08	99.5 ± 0.03	5.91	43 to 45	25.7 ± 1.76	96.87 ± 0.28	42.4 ± 2.94	91 ± 1.49	13.2	11.4	
CCOP(=O)(OCC)c1c(OCc2cn(Cc3ccc(C(C)(C)C)cc3)nn2)ccc2c1CC[C@@H]1[C@@H]2CC[C@@]2(C)C(=O)CC[C@@H]12 [Compound 15b, (3-[{1–(4-tert-butylbenzyl)-1H-1,2,3-triazol-4-yl}methoxy]-13α-estra-1,3,5(10)-trien-17-on-4-yl)-diethylphosphonate]	46.2 ± 1.27	92.05 ± 0.86	9.96	54 to 59	< 20	34.8 ± 2.2	30.1 ± 1.53	77.5 ± 1.56			
CC(=O)O[C@H]1C(=O)[C@@]2(C)[C@H]([C@H](OC(=O)c3ccccc3)[C@]3(O)C[C@H](OC(=O)[C@H](O)[C@@H](NC(=O)c4ccccc4)c4ccccc4)C(C)=C1C3(C)C)[C@]1(OC(C)=O)CO[C@@H]1C[C@@H]2O [Paclitaxel, reference compound]											increase in Vmax (tubulin): threefold increase in Vmax
